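96-well plates; 48 h exposure; 5 concentrations. Endpoints by linear interpolation between flanking doses. Not reached: highest tested concentration assigned. At the GI50, growth is halved.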 Activity calls are given as the source filed them. Rule as the data show it: active = GI50 up to about 1.1 µM and inactive = higher.
Columns and labels:
Test in all cases: DTP human tumour cell line panel, 48 h
HOP-62 = system: HOP-62
OVCAR-5 = system: OVCAR-5
M14 = system: M14
HCT-15 = system: HCT-15
SF-295 = system: SF-295
ACHN = system: ACHN
786-0 = system: 786-0
NCI-H522 = system: NCI-H522
UO-31 = system: UO-31
SN12C = system: SN12C
CAKI-1 = system: CAKI-1
LOX IMVI = system: LOX IMVI
Malme-3M = system: Malme-3M
MDA-N = system: MDA-N
RPMI-8226 = system: RPMI-8226
SF-268 = system: SF-268
UACC-257 = system: UACC-257
DLD-1 = system: DLD-1
KM12 = system: KM12
SNB-19 = system: SNB-19

SMILES	GI50 (HOP-62)	GI50 (OVCAR-5)	GI50 (M14)	GI50 (HCT-15)	GI50 (SF-295)	GI50 (ACHN)	GI50 (786-0)	GI50 (NCI-H522)	GI50 (UO-31)	GI50 (SN12C)	GI50 (CAKI-1)	GI50 (LOX IMVI)	GI50 (Malme-3M)	GI50 (MDA-N)	GI50 (RPMI-8226)	GI50 (SF-268)	GI50 (UACC-257)	GI50 (DLD-1)	GI50 (KM12)	GI50 (SNB-19)
CC1(C)CC(Nc2ccc(Nc3ccccc3)cc2)CC(C)(C)N1	50.2 µM (inactive)	36.2 µM (inactive)	17.7 µM (inactive)	33.8 µM	68.2 µM (inactive)	13.5 µM (inactive)	21.1 µM (inactive)	10.1 µM (inactive)	9.48 µM (inactive)	48.6 µM (inactive)	22.9 µM (inactive)	24.6 µM (inactive)	17.9 µM (inactive)	17 µM (inactive)	12.7 µM (inactive)	43.3 µM (inactive)	14.7 µM (inactive)	70.5 µM (inactive)	44.1 µM (inactive)	50.2 µM (inactive)
CCOC(=O)C1C(c2ccc(Cl)cc2Cl)NC(c2ccc(C)cc2)C(C(=O)OC)S1(=O)=O (stereo unspecified)	> 100 µM (inactive)	> 100 µM (inactive)	> 100 µM (inactive)	59.2 µM	> 100 µM (inactive)	80.4 µM (inactive)	60.5 µM (inactive)	> 100 µM (inactive)	37.9 µM (inactive)	–	> 100 µM (inactive)	81.5 µM (inactive)	> 100 µM (inactive)	–	74.3 µM (inactive)	72.9 µM (inactive)	22.8 µM (inactive)	> 100 µM (inactive)	> 100 µM (inactive)	> 100 µM (inactive)
C=C1C(=O)OC2C/C(C)=C/CC/C(C)=C/CCC3(COC(C)=O)OC3CC12 (stereo unspecified)	18.7 µM (inactive)	16.5 µM (inactive)	6.15 µM (inactive)	2.81 µM	15.3 µM (inactive)	14.1 µM (inactive)	5.65 µM (inactive)	1.51 µM (inactive)	12.7 µM (inactive)	15.6 µM (inactive)	3.31 µM (inactive)	9.46 µM (inactive)	12.9 µM (inactive)	–	2.53 µM (inactive)	10 µM (inactive)	15.4 µM (inactive)	3.81 µM (inactive)	13.7 µM (inactive)	16.5 µM (inactive)
Cc1cc(Cl)ccc1NC(=O)CCCC(=O)C1C/C(=N/O)CC/C1=N\O (stereo unspecified)	> 100 µM (inactive)	> 100 µM (inactive)	> 100 µM (inactive)	> 100 µM	> 100 µM (inactive)	> 100 µM (inactive)	> 100 µM (inactive)	> 100 µM (inactive)	> 100 µM (inactive)	> 100 µM (inactive)	> 100 µM (inactive)	–	> 100 µM (inactive)	–	> 100 µM (inactive)	> 100 µM (inactive)	> 100 µM (inactive)	> 100 µM (inactive)	> 100 µM (inactive)	> 100 µM (inactive)
O=C(NCCCCCCCCCCCCNC(=O)c1cccc2ccccc12)c1cccc2ccccc12	2.98 µM (inactive)	> 100 µM (inactive)	> 100 µM (inactive)	> 100 µM	> 50.4 µM (inactive)	> 64 µM (inactive)	> 44.8 µM (inactive)	> 100 µM (inactive)	> 42.7 µM (inactive)	> 68.4 µM (inactive)	23.3 µM (inactive)	> 84.9 µM (inactive)	> 92.3 µM (inactive)	–	> 100 µM (inactive)	> 100 µM (inactive)	> 100 µM (inactive)	51.4 µM (inactive)	97.3 µM (inactive)	45.6 µM (inactive)
N#Cc1cccc2c1Nc1ccccc1S2	43.4 µM (inactive)	> 100 µM (inactive)	> 100 µM (inactive)	> 100 µM	35.2 µM (inactive)	> 100 µM (inactive)	55.1 µM (inactive)	> 100 µM (inactive)	> 100 µM (inactive)	> 100 µM (inactive)	> 100 µM (inactive)	> 100 µM (inactive)	> 100 µM (inactive)	–	> 100 µM (inactive)	32.9 µM (inactive)	> 100 µM (inactive)	> 100 µM (inactive)	> 100 µM (inactive)	37.8 µM (inactive)
COc1ccccc1NC(=O)NS(=O)(=O)c1ccccc1	69.2 µM (inactive)	> 100 µM (inactive)	> 100 µM (inactive)	–	> 100 µM (inactive)	58.3 µM (inactive)	> 100 µM (inactive)	63.7 µM (inactive)	> 100 µM (inactive)	> 100 µM (inactive)	91.6 µM (inactive)	> 100 µM (inactive)	> 100 µM (inactive)	–	–	> 100 µM (inactive)	> 100 µM (inactive)	> 100 µM (inactive)	> 100 µM (inactive)	> 100 µM (inactive)
CC(C)N(C(=O)C12C3C4C1C1C2C3C41C(=O)C(C)(C)C)C(C)C (stereo unspecified)	> 100 µM (inactive)	> 100 µM (inactive)	> 100 µM (inactive)	–	> 100 µM (inactive)	> 100 µM (inactive)	> 100 µM (inactive)	14 µM (inactive)	46.1 µM (inactive)	> 100 µM (inactive)	> 100 µM (inactive)	> 100 µM (inactive)	> 100 µM (inactive)	–	31.9 µM (inactive)	> 100 µM (inactive)	95.3 µM (inactive)	> 100 µM (inactive)	> 100 µM (inactive)	> 100 µM (inactive)
Cc1ccccc1-n1c(CCl)nc2ccc(Br)cc2c1=O	23.4 µM (inactive)	24.4 µM (inactive)	0.679 µM (active)	3.59 µM	11 µM (inactive)	30.1 µM (inactive)	8.17 µM (inactive)	2.28 µM (inactive)	14.9 µM (inactive)	0.434 µM (active)	1.77 µM (inactive)	0.0333 µM (active)	17.3 µM (inactive)	–	8.36 µM (inactive)	3.21 µM (inactive)	14.8 µM (inactive)	3.82 µM (inactive)	13.6 µM (inactive)	26.7 µM (inactive)
N#Cc1nc(Nc2ccc([N+](=O)[O-])cc2)sc1N	20.4 µM (inactive)	28.6 µM (inactive)	22 µM (inactive)	12.5 µM	26.5 µM (inactive)	9.62 µM (inactive)	21.2 µM (inactive)	4.05 µM (inactive)	7.38 µM (inactive)	7.8 µM (inactive)	11.9 µM (inactive)	7.19 µM (inactive)	23.9 µM (inactive)	–	3.45 µM (inactive)	11.8 µM (inactive)	18.6 µM (inactive)	23.4 µM (inactive)	21.9 µM (inactive)	17.7 µM (inactive)
COc1cccc2c1C(=O)c1c(O)c3c(c(O)c1C2=O)C[C@@](O)(/C(C)=N\O)C[C@@H]3OC1CC(N)C(O)C(C)O1 (stereo partly specified)	1.24 µM (inactive)	2.7 µM (inactive)	2.28 µM (inactive)	28.7 µM	1.38 µM (inactive)	1.9 µM (inactive)	1.06 µM (active)	0.315 µM (active)	10 µM (inactive)	0.741 µM (active)	1.93 µM (inactive)	0.388 µM (active)	0.755 µM (active)	1.88 µM (inactive)	0.592 µM (active)	0.931 µM (active)	1.78 µM (inactive)	1.95 µM (inactive)	2.39 µM (inactive)	0.78 µM (active)
CC(=O)NCCCCCCNC(C)=O [HEXAMETHYLENEBISACETAMIDE]	6590 µM (inactive)	8240 µM (inactive)	6040 µM (inactive)	5530 µM	6370 µM (inactive)	> 10000 µM (inactive)	> 10000 µM (inactive)	3230 µM (inactive)	5250 µM (inactive)	7500 µM (inactive)	1790 µM (inactive)	4680 µM (inactive)	3160 µM (inactive)	7570 µM (inactive)	4650 µM (inactive)	8910 µM (inactive)	7080 µM (inactive)	8240 µM (inactive)	8450 µM (inactive)	8510 µM (inactive)

— ChEMBL document CHEMBL1201862, “PubChem BioAssay data set” (2004)
